From ChEMBL document CHEMBL1149799, “Bioactive peroxides as potential therapeutic agents” (Eur J Med Chem, 2008)
Converted amounts (≈) assume the structure as drawn.

Assays:
MIA PaCa-2 = test: Cytotoxicity against human MIA-PaCa2 cells
NCI-H460 = test: Cytotoxicity against human NCI-H460 cells; format: functional, cell-based; details: Homo sapiens, NCI-H460
SF-268 = test: Cytotoxicity against human SF268 cells; format: functional, cell-based; details: Homo sapiens, SF-268; read-out: IC50
HeLa = test: Cytotoxicity against human HeLa cells; format: functional, cell-based
MCF7 = test: Cytotoxicity against human MCF7 cells; format: functional, cell-based; details: Homo sapiens, MCF7
WEHI-164 = test: Cytotoxicity against mouse WEHI164 cells; format: functional, cell-based
Candida albicans = test: Antifungal activity against Candida albicans; format: functional
PC-3 = test: Cytotoxicity against human PC3 cells; format: functional, cell-based
[1] = Cytotoxicity against human HERP3B cells; format: functional
[2] = test system: Vesicular stomatitis virus; test: Antiviral activity against Vesicular stomatitis virus; format: functional, organism-based
HT-29 = test: Cytotoxicity against human HT29 cells; format: functional, cell-based; details: Homo sapiens, HT-29
P388 = test: Cytotoxicity against mouse P388 cells; format: functional, cell-based; details: Mus musculus, P388
A549 = test: Cytotoxicity against human A549 cells; format: functional, cell-based; details: Homo sapiens, A549
Human alphaherpesvirus 1 = test: Antiviral activity against herpes simplex virus type-1; format: functional, organism-based
KB = test: Cytotoxicity against human KB cells; format: functional, cell-based; details: Homo sapiens
EL4 = test: Cytotoxicity against […] cells; format: functional, cell-based; details: Mus musculus
LoVo = test: Cytotoxicity against human LoVo cells; format: functional
L1210 = test: Cytotoxicity against mouse L1210 cells; format: functional, cell-based; details: Mus musculus, L1210
[3] = Cytotoxicity against human NCI60 cells; format: functional
[4] = Cytotoxicity against mouse B16-F1cells; format: functional, cell-based; details: B16-F1
Plasmodium falciparum = test: Antimalarial activity against Plasmodium falciparum W2; format: functional, organism-based
[5] = Cytotoxicity against mouse Ehrlich Ascites carcinoma by clonogenic assay; format: functional
[6] = Cytotoxicity against human CFUGM; format: functional; details: CFU-GM
[7] = Cytotoxicity against mouse Ehrlich Ascites carcinoma by […] assay; format: functional
[8] = Cytotoxicity against human MAXF642NL cells; format: functional, cell-based
[9] = Cytotoxicity against human LXF529L cells; format: functional, cell-based; details: LXF 529L
[10] = Cytotoxicity against human GXF251L cells; format: functional, cell-based; details: GXF 251L
[11] = Cytotoxicity against human MAXF401NL cells; format: functional, cell-based; details: MAXF 401NL
[12] = Cytotoxicity against human UXF1138L cells; format: functional, cell-based; details: UXF 1138L
[13] = Cytotoxicity against human RXF486L cells; format: functional, cell-based; details: RXF 486L

## CC(=C/C(=O)O)/C=C/C=C(\C)[C@@H]1C=C2C(C)(C)CCC[C@]2(C)OO1
MIA PaCa-2
  IC50: 1.7 µg/mL (≈ 5.11 µM)
NCI-H460
  IC50: 2.1 µg/mL (≈ 6.32 µM)
SF-268
  IC50: 3.5 µg/mL (≈ 10.5 µM)
HeLa
  IC50: 2 µg/mL (≈ 6.02 µM)
MCF7
  IC50: 2.7 µg/mL (≈ 8.12 µM)

## CC/C=C/C(CC)C/C(C)=C/[C@]1(CC)C[C@@H](CC)[C@H](CC(=O)OC)OO1 (stereo partly drawn)
WEHI-164
  IC50: 8.2 µg/mL (≈ 22.4 µM)

## CC(CCCCCC/C=C\C=C\c1ccccc1)C[C@]1(C)C[C@](C)(CC(=O)O)OO1 (stereo partly drawn)
Candida albicans
  MIC: 1.6 µg/mL (≈ 3.86 µM)

## COc1ccc(OOc2ccc(OC)c3cc4c(cc23)[C@]2(C)CCC(=O)c3coc(c32)C4=O)c2cc3c(cc12)[C@@]1(C)CCC(=O)c2coc(c21)C3=O
PC-3
  Activity: 56
[1]
  Activity: 5

## C[C@H](C(=O)O)[C@@H]1CC[C@@](C)(CC[C@@]2(O)[C@H](C)CC[C@@]3(C)C(C)(C)CCC[C@]23C)OO1 [MYCAPEROXIDE B]
[2]
  IC50: 0.25 µg/mL (≈ 0.589 µM)
HT-29
  IC50: 0.5 µg/mL (≈ 1.18 µM)
P388
  IC50: 0.5 µg/mL (≈ 1.18 µM)
A549
  IC50: 0.5 µg/mL (≈ 1.18 µM)
Human alphaherpesvirus 1
  IC50: 0.25 µg/mL (≈ 0.589 µM)

## CC(CCCC/C=C/CC/C=C\c1ccccc1)C[C@]1(C)C[C@](C)(CC(=O)O)OO1 (stereo partly drawn) [EPIPLAKINIC ACID C]
KB
  MIC: 0.01 µg/mL (≈ 0.0241 µM)
EL4
  IC50: 4.6 µg/mL (≈ 11.1 µM)
P388
  IC50: 2.5 µg/mL (≈ 6.03 µM)
A549
  IC50: 2 µg/mL (≈ 4.82 µM)
LoVo
  MIC: 1 µg/mL (≈ 2.41 µM)
L1210
  IC50: 0.052 µg/mL (≈ 0.125 µM)

## CC1(C)CC(C23C=CC(CO)(CCC2)OO3)CCC1Br (stereo not drawn) [MAJAPOLENES A]
[3]
  GI50: 0.4 µM
  TGI: 0.9 µM
[3]; read-out: LC50 (the source's name)
  CC50: 2.8 µM

## COC(=O)C[C@H]1OO[C@](C)(C/C(C)=C/C(C)=C/Cc2ccccc2)C[C@H]1C [CAPUCINOATE B]
[4]
  IC50: 0.012 µg/mL (≈ 0.0322 µM)

## CCC(=O)/C=C/[C@@]1(CC)C[C@H](CC)[C@H](CC(=O)OC)OO1 [PLAKORTOLIDE I(M)]
Plasmodium falciparum
  IC50: 0.57 µg/mL (≈ 1.91 µM)

## CCC/C=C/[C@]1(CC)C[C@H](CC)[C@H](CC(=O)O)OO1 [PLAKORTIDE L]
Plasmodium falciparum
  IC50: 0.57 µg/mL (≈ 2.11 µM)

## COC(=O)C[C@H]1OO[C@](C)(C/C(C)=C/C=C/Cc2ccccc2)C[C@H]1C [CAPUCINOATE A]
[4]
  IC50: 0.012 µg/mL (≈ 0.0335 µM)

## C[C@@H]1CC[C@H]2[C@@H](C)C(=O)O[C@@H]3O[C@@]4(C)CC[C@@H]1[C@]32OO4 [ARTEMISININ]
[5]
  IC50: > 1000 µM
[6]
  IC50: 385 µM
[7]
  IC50: > 723 µM

## CCCCC(CC)C/C(C)=C/[C@@]1(CC)C[C@@H](CC)[C@@H](CC(=O)OC)OO1 (stereo partly drawn)
WEHI-164
  IC50: 9.5 µg/mL (≈ 25.8 µM)

## CC/C=C/C(CC)C/C(C)=C/[C@]1(CC)C[C@H](CC)[C@H](CC(=O)OC)OO1 (stereo partly drawn) [PLAKORTIDE H]
WEHI-164
  IC50: 7.1 µg/mL (≈ 19.4 µM)

## CCCCCC[C@@]1(CC)C=C(CC)[C@@H](CC(=O)OC)OO1
[8]
  IC50: 7.2 µg/mL (≈ 24.1 µM)
[9]
  IC50: 7.7 µg/mL (≈ 25.8 µM)
[10]
  IC50: 8.3 µg/mL (≈ 27.8 µM)
[11]
  IC50: 14.9 µg/mL (≈ 49.9 µM)
[12]
  IC50: 14.1 µg/mL (≈ 47.2 µM)
[13]
  IC50: 14.4 µg/mL (≈ 48.3 µM)
